Measurements taken from ChEMBL document CHEMBL1123955, “Improved delivery through biological membranes. 32. Synthesis and biological activity of brain-targeted delivery systems for various estradiol derivatives” (J Med Chem, 1988).
Several values for one entry are separate records, joined by “and”; a condition that tells them apart may be missing. Identical values can stand only once.

Tests used:
[1] = Half life in whole rat blood; assay type: ADME
[2] = Half life in brain homogenate; assay type: ADME, tissue-based
[3] = Half life in liver homogenate; assay type: ADME, tissue-based
[4] = Partition coefficient (logP); assay type: physicochemical; settings: octanol/water
[5] = Rate constant in brain homogenate; assay type: ADME, tissue-based
[6] = Rate constant in liver homogenate; assay type: ADME, tissue-based; settings: tissue homogenate
Rattus norvegicus [7] = species: Rattus norvegicus; test: Rate constant in whole rat blood; assay type: ADME
Rattus norvegicus [8] = test: Concentration in brain 3 hr after administration of compound 4d; assay type: functional, organism-based
Rattus norvegicus [9] = test: Concentration in brain 6 hr after administration of compound 4d; assay type: functional, organism-based
Rattus norvegicus [10] = test: Concentration in brain hr after administration of compound 4d; assay type: functional, organism-based
Rattus norvegicus [11] = test: Concentration in brain 24 hr after administration of compound 4d; assay type: functional, organism-based
Rattus norvegicus [12] = test: Concentration in blood 0.25 hr after administration of compound 4d; assay type: functional, organism-based
Rattus norvegicus [13] = test: Concentration in blood 1 hr after administration of compound 4d; assay type: functional, organism-based
Rattus norvegicus [14] = test: Concentration in brain 0.25 hr after administration of compound 4d; assay type: functional, organism-based

SMILES | half-life [1] | half-life [2] | half-life [3] | logP [4] | k [5] | k [6] | k (Rattus norvegicus [7]) | Concentration (Rattus norvegicus [8]) | Concentration (Rattus norvegicus [9]) | Concentration (Rattus norvegicus [10]) | Concentration (Rattus norvegicus [11]) | Concentration (Rattus norvegicus [12]) | Concentration (Rattus norvegicus [13]) | Concentration (Rattus norvegicus [14])
C#C[C@]1(OC(=O)C2=CN(C)C=CC2)CC[C@H]2[C@@H]3CCc4cc(O)ccc4[C@H]3CC[C@@]21C | 49.9 min | 12.4 min | 24.5 min | 4.53 | 0.0567 min⁻¹ | 0.0227 min⁻¹ | 0.0139 min⁻¹ |  |  |  |  |  |  | 
C#C[C@]1(OC(=O)c2ccc[n+](C)c2)CC[C@H]2[C@@H]3CCc4cc(O)ccc4[C@H]3CC[C@@]21C |  |  |  |  |  |  |  | 7.35 ng/g | 7.07 ng/g | 7.16 ng/g and 7.35 ng/g | 7.79 ng/g | 0.822 ng/g | 0.552 ng/g | 7.16 ng/g
CN1C=CCC(C(=O)O[C@H]2CC[C@H]3[C@@H]4CCc5cc(O)ccc5[C@H]4CC[C@]23C)=C1 | 39.6 min | 12.9 min | 30.5 min | 4.5 | 0.0537 min⁻¹ | 0.0283 min⁻¹ | 0.0175 min⁻¹ |  |  |  |  |  |  | 
